For 2 compounds, maximum thrombocyte aggregation and thrombocyte aggregation results are on record in patent US20100035824A1, “Synergistic Pharmaceutical Composition” (priority 2005, published 2010).

In the assay the test system is collagen-induced thrombocyte aggregation of human blood plasma which is rich of platelets. Put plainly: Collagen-induced thrombocyte aggregation in platelet-rich human plasma (aggregometry).

Procedure: While the other conditions of the experiment remained the same as in Example 1, the collagen-induced thrombocyte aggregation was measured with different concentrations of genistein and glutamic acid dipeptide.

For the compound `O=c1c(-c2ccc(O)cc2)coc2cc(O)cc(O)c12` [genistein, Genistein], the maximum thrombocyte aggregation was 25% (Example 3: 50 uM genistein, absence of glutamic acid dipeptide); “about 60%” (Example 4: 50 uM genistein, 0 uM alanine dipeptide, control about 70%); “about 35%” (genistein 100 uM, collagen-induced, control without genistein about 65%); “about 23%” (genistein 150 uM, collagen-induced, control about 65%); “about 5%” (genistein 200 uM, collagen-induced, control about 65%).

For glutamic acid dipeptide, the thrombocyte aggregation result (glutamic acid dipeptide 100 μmolar, without genistein, control 65%) is recorded as “about 60%”.
